Patent publication US12637464B2, “Tetracyclic compounds for treating brain disorders” (The Regents of the University of California, priority 2021, dated 2026)

Tested on: 5-HT2 receptors
Test: Traditional GPCR binding and functional assays (radioligand binding, IP1, β-arrestin)
Format: cell-based, human
Details: FIG. 3B
Experimental: Radioligand Binding Assays (5-HT2AR and 5-HT2CR). The 5-HT2AR and 5-HT2CR competitive radioligand binding assays were performed at Epics Therapeutics S.A. (Belgium, FAST-0505B) using conventional methods. Briefly, competition binding was performed in duplicate in the wells of a 96-well plate (Master Block, Greiner, 786201) containing binding buffer, membrane extracts, radiotracer [^3H]-DOI and test compound. Nonspecific binding was determined by co-incubation with 200-fold excess of cold competitor DOI. The samples were incubated in a final volume of 0.1 mL at a temperature and for a duration optimized for either the 5-HT2AR or 5-HT2CR and then filtered over filter plates. […] The plates were incubated for 15 min on an orbital shaker and then counted with a TopCount™ for 1 min/well. […]
IP1 Assay (5-HT2AR and 5-HT2CR). […] After addition of the lysis buffer containing IP1-d2 and anti-IP1 cryptate detection reagents, plates were incubated for 1 h at room temperature and fluorescence ratios were measured according to the manufacturer's specifications using the HTRF kit. […]
β-Arrestin Activation (PathHunter®). […] PK and EA are then expressed as fusion proteins in U2OS cells, with PK fused to the GPCR of interest, and EA fused to β-Arrestin. […]
Serotonin 5-HT2A In Vitro Radioligand Binding Competition Assay. […] Nonspecific binding is determined by co-incubation with 200-fold excess of cold competitor. […]

Structure (SMILES): CCN(CC)C(=O)[C@@H]1C=C2c3cccc4ccn(c34)C[C@H]2N(C)C1 [(+)-JRT]
- agonism of 5-HT2 receptors: potent agonist of 5-HT2 receptors
